In patent US20220133711A1, “CAMPTOTHECIN DERIVATIVES” (priority 2019, published 2022):
Like-named read-outs stand apart in the source and are kept apart here.

Key:
Assay type in all cases: cell-based
HSC-2 = experiment: In vitro cytotoxicity assay (WST-8 cell viability, 5 days); conditions: Homo sapiens
Protocol: (§1) Cytotoxic potencies were assessed in flat-bottomed 96 well plates (Costar) using a water-soluble tetrazonium salt (WST-8) based cell viability assay (Dojindo, Molecular Technologies, Inc.) as previously described (Kovtun Y V, et al. Antibody-maytansinoid conjugates designed to bypass multidrug resistance. Cancer Res 2010; 70(6):2528-37). Briefly, human tumor cells (1,000-5,000 cells/well, depending on the cell line), in the appropriate culture medium were incubated, with conjugates in the presence or absence of an excess of the corresponding unconjugated antibodies, or with the metabolites for 5 days, at 37° C., 6% CO2. Cell viability was determined from background-corrected WST-8 absorbance.

Namalwa = experiment: as above; conditions: Homo sapiens, read-out: In vitro cytotoxicity (IC50) Namalwa
Protocol: as §1

[1] = test system: N-Luc (Namalwa cells stably transfected with the Luciferase gene); experiment: as above; conditions: Homo sapiens
Protocol: as §1

MDA-MB-468 = experiment: as above; conditions: Homo sapiens, MDA-MB-468, read-out: In vitro cytotoxicity (IC50) MDA-MB-468
Protocol: as §1

KB = experiment: cells; conditions: Homo sapiens, read-out: In vitro cytotoxicity (IC50) KB
Protocol: as §1

SUDHL-1 = experiment: In vitro cytotoxicity assay (WST-8 cell viability, 5 days); conditions: Homo sapiens, SU-DHL-1, read-out: In vitro cytotoxicity (IC50) SUDHL-1
Protocol: as §1

[2] = HSC-2, read-out: In vitro cytotoxicity (IC50) HSC-2, non-conjugated compounds, Table 7A
[3] = read-out: In vitro cytotoxicity (IC50) N-Luc, non-conjugated compounds, Table 7B
[4] = HSC-2, read-out: In vitro cytotoxicity (IC50) HSC-2
[5] = read-out: In vitro cytotoxicity (IC50) N-Luc, non-conjugated compounds, Table 7A
[6] = HSC-2, read-out: In vitro cytotoxicity (IC50) HSC-2, non-conjugated compounds, Table 7B

| SMILES | IC50 (HSC-2; [2]) [nM] | IC50 (Namalwa) [nM] | IC50 [1, 3] [nM] | IC50 (HSC-2; [4]) [nM] | IC50 [1, 5] [nM] | IC50 (MDA-MB-468) [nM] | IC50 (KB) [nM] | IC50 (SUDHL-1) [nM] | IC50 (HSC-2; [6]) [nM] |
| --- | --- | --- | --- | --- | --- | --- | --- | --- | --- |
| CC[C@@]1(O)C(=O)OCc2c1cc1n(c2=O)Cc2c-1nc1cc(F)c(C)cc1c2CCCCSC [Compound 33a] | 2 | 0.7 | – | – | – | – | – | – | – |
| CC[C@@]1(O)C(=O)OCc2c1cc1n(c2=O)Cc2c-1nc1cc(F)c(C)cc1c2CSCCO [Compound 8c] | – | – | 0.2 | 0.4 | – | – | – | – | – |
| CC[C@@]1(O)C(=O)OCc2c1cc1n(c2=O)Cc2c-1nc1cc(F)c(SC)cc1c2CNC(=O)CO [Compound 7b] | 7 | – | – | – | 2 | – | – | – | – |
| CC[C@@]1(O)C(=O)OCc2c1cc1n(c2=O)Cc2c-1nc1cc(F)c(C)cc1c2CS(=O)(=O)CCO [Compound 34b] | 3 | – | – | – | – | 3 | 2 | – | – |
| CC[C@@]1(O)C(=O)OCc2c1cc1n(c2=O)Cc2c-1nc1cc(F)c(C)cc1c2CCl [Compound 4a] | 4 | 3 | – | – | – | – | – | – | – |
| CC[C@@]1(O)C(=O)OCc2c1cc1n(c2=O)Cc2c-1nc1cc(F)c(SC)cc1c2CCl [Compound 4b] | 3 | 1 | – | – | – | – | – | – | – |
| CC[C@@]1(O)C(=O)OCc2c1cc1n(c2=O)Cc2c-1nc1cc(F)c(C)cc1c2C[S+]([O-])CCO (some centres unmarked) [Compound 34a] | 9 | – | – | – | – | 7 | 7 | – | – |
| CC[C@@]1(O)C(=O)OCc2c1cc1n(c2=O)Cc2c-1nc1cc(F)c(C)cc1c2CNC(=O)CO [Compound 7a] | 4 | 0.9 | 0.9 | 2 | 1 | 3 | – | 0.5 | – |
| CC[C@@]1(O)C(=O)OCc2c1cc1n(c2=O)Cc2c-1nc1cc(F)c(C)cc1c2CCCCO [Compound 8a] | 0.6 | 0.2 | 0.2 | – | 0.9 | 2 | 0.6 | – | 0.5 |
| CC[C@@]1(O)C(=O)OCc2c1cc1n(c2=O)Cc2c-1nc1cc(F)c(C)cc1c2CN(Cc1ccccc1)C(=O)CO [Compound 7c] | 1 | – | – | – | 0.7 | 1 | – | 0.2 | – |
| CC[C@@]1(O)C(=O)OCc2c1cc1n(c2=O)Cc2c-1nc1cc(F)c(C)cc1c2CNC(=O)CCCCCSC [Compound 35a] | 7 | – | – | – | – | – | – | 0.6 | – |
| CC[C@@]1(O)C(=O)OCc2c1cc1n(c2=O)Cc2c-1nc1cc(F)c(C)cc1c2CSCCSC [Compound 8p] | – | – | 0.2 | – | – | – | – | – | 0.6 |
